Experimental data from ChEMBL document CHEMBL1201862, “PubChem BioAssay data set” (2004).
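Interpolation was linear, between the two tested concentrations surrounding the appropriate level; five concentrations were tested over 48 hours in 96-well plates. GI50 is the concentration that inhibits growth by half.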 Active and inactive are the calls of the source. No stated cut-off is given here; in the data, active = GI50 up to about 1.1 µM and inactive = higher.

Tests used:
Assay in all cases: NCI-60 cell line screen, 48 h
NCI-H226 = tested on: NCI-H226
HCT-116 = tested on: HCT-116
HL-60 = tested on: HL-60
OVCAR-5 = tested on: OVCAR-5
EKVX = tested on: EKVX
SNB-19 = tested on: SNB-19
SK-MEL-5 = tested on: SK-MEL-5
LOX IMVI = tested on: LOX IMVI
HT-29 = tested on: HT-29
A498 = tested on: A498
ACHN = tested on: ACHN
NCI-H23 = tested on: NCI-H23
COLO 205 = tested on: COLO 205
HOP-92 = tested on: HOP-92
SW-620 = tested on: SW-620
LXFL 529 = tested on: LXFL 529
M14 = tested on: M14
SK-MEL-2 = tested on: SK-MEL-2
TK-10 = tested on: TK-10
HOP-62 = tested on: HOP-62
Malme-3M = tested on: Malme-3M
RPMI-8226 = tested on: RPMI-8226
SF-539 = tested on: SF-539
SN12C = tested on: SN12C
OVCAR-8 = tested on: OVCAR-8
UO-31 = tested on: UO-31
CCRF-CEM = tested on: CCRF-CEM
M19-MEL = tested on: M19-MEL
RXF 393 = tested on: RXF 393
OVCAR-3 = tested on: OVCAR-3
A549 = tested on: A549
SF-295 = tested on: SF-295
SNB-78 = tested on: SNB-78
CAKI-1 = tested on: CAKI-1
KM12 = tested on: KM12
NCI-H460 = tested on: NCI-H460
UACC-257 = tested on: UACC-257
786-0 = tested on: 786-0
MOLT-4 = tested on: MOLT-4
U-251 = tested on: U-251
DLD-1 = tested on: DLD-1
K562 = tested on: K562
KM-20L2 = tested on: KM-20L2
HCC 2998 = tested on: HCC 2998
DMS-114 = tested on: DMS-114
SF-268 = tested on: SF-268
SK-MEL-28 = tested on: SK-MEL-28
OVCAR-4 = tested on: OVCAR-4
NCI-H522 = tested on: NCI-H522
DMS-273 = tested on: DMS-273
SR = tested on: SR
IGROV-1 = tested on: IGROV-1
SK-OV-3 = tested on: SK-OV-3
XF498 = tested on: XF498
SNB-75 = tested on: SNB-75
UACC-62 = tested on: UACC-62

Measured: GI50

C/C(C=O)=C1\C(O)C[C@]1(C)C1CC(C)(C)CC1O (stereo partly specified)
inactive: NCI-H226 > 100 µM | HCT-116 72.9 µM | HL-60 91 µM | OVCAR-5 > 100 µM | EKVX > 100 µM | SNB-19 > 100 µM | SK-MEL-5 > 100 µM | LOX IMVI > 100 µM | HT-29 > 100 µM | A498 > 100 µM | ACHN > 100 µM | NCI-H23 > 100 µM | COLO 205 > 100 µM | HOP-92 74.1 µM | SW-620 > 100 µM | LXFL 529 57.1 µM | M14 47.3 µM | SK-MEL-2 > 100 µM | TK-10 > 100 µM | HOP-62 > 100 µM | Malme-3M > 100 µM | RPMI-8226 42.3 µM | SF-539 49.1 µM | SN12C > 100 µM | OVCAR-8 > 100 µM | UO-31 > 100 µM | CCRF-CEM 26.7 µM | M19-MEL > 100 µM | RXF 393 > 100 µM | OVCAR-3 28.8 µM | A549 > 100 µM | SF-295 41.4 µM | SNB-78 > 100 µM | CAKI-1 > 100 µM | KM12 > 100 µM | NCI-H460 > 100 µM | UACC-257 > 100 µM | 786-0 > 100 µM | MOLT-4 35.7 µM | U-251 > 100 µM | DLD-1 > 100 µM | K562 54.6 µM | KM-20L2 > 100 µM | HCC 2998 > 100 µM | DMS-114 39.1 µM | SF-268 > 100 µM | SK-MEL-28 > 100 µM | OVCAR-4 35.7 µM | NCI-H522 32 µM | DMS-273 > 100 µM | SR 47 µM

O=C(NN1C(=O)C(Cl)C1c1cccc([N+](=O)[O-])c1)c1ccccc1O (stereo unspecified)
inactive: HCT-116 > 100 µM | HL-60 > 100 µM | OVCAR-5 > 100 µM | EKVX > 100 µM | SNB-19 68.5 µM | SK-MEL-5 > 100 µM | IGROV-1 76.4 µM | HT-29 > 100 µM | NCI-H23 > 100 µM | COLO 205 > 100 µM | HOP-92 > 100 µM | SK-OV-3 > 100 µM | SW-620 > 100 µM | LXFL 529 > 100 µM | M14 > 100 µM | SK-MEL-2 > 100 µM | TK-10 > 100 µM | HOP-62 > 100 µM | Malme-3M 59.8 µM | RPMI-8226 > 100 µM | SF-539 > 100 µM | SN12C > 100 µM | OVCAR-8 > 100 µM | UO-31 71.9 µM | CCRF-CEM 35.6 µM | M19-MEL > 100 µM | RXF 393 > 100 µM | OVCAR-3 > 100 µM | A549 > 100 µM | SF-295 > 100 µM | KM12 > 100 µM | NCI-H460 > 100 µM | UACC-257 > 100 µM | MOLT-4 > 100 µM | U-251 > 100 µM | XF498 > 100 µM | SNB-75 > 100 µM | K562 > 100 µM | KM-20L2 > 100 µM | UACC-62 > 100 µM | DMS-114 > 100 µM | SF-268 > 100 µM | SK-MEL-28 > 100 µM | OVCAR-4 > 100 µM | NCI-H522 28.3 µM | SR > 100 µM

COc1ccc2c(c1)CC[C@@H]1C2CC[C@]2(C)C(=O)N(CCN3CCCC3)C(=O)CC12 (stereo partly specified)
inactive: HL-60 18.7 µM | OVCAR-5 26.1 µM | SNB-19 > 100 µM | IGROV-1 44.7 µM | HT-29 17.4 µM | A498 27.9 µM | ACHN 59.3 µM | NCI-H23 49.7 µM | COLO 205 17.7 µM | HOP-92 17.8 µM | SK-OV-3 66.7 µM | LXFL 529 26.4 µM | M14 15.8 µM | SK-MEL-2 17.8 µM | HOP-62 28.3 µM | Malme-3M 17 µM | RPMI-8226 15.3 µM | UO-31 17.9 µM | M19-MEL 18.2 µM | RXF 393 34 µM | OVCAR-3 27.5 µM | SF-295 19.1 µM | SNB-78 31.4 µM | KM12 29.4 µM | NCI-H460 36.6 µM | UACC-257 18.5 µM | 786-0 18.3 µM | MOLT-4 17.3 µM | U-251 43.9 µM | SNB-75 15.1 µM | K562 20.4 µM | KM-20L2 21.4 µM | UACC-62 18.2 µM | DMS-114 26.5 µM | SF-268 35.1 µM | SK-MEL-28 19.5 µM | OVCAR-4 84.3 µM | NCI-H522 23.1 µM | SR 31 µM
